# Test results taken from PMC3431920 (Molecular bioSystems, 2012).
# Tests used:
# MCF-7 cells = assay: MTS cell viability assay, 24h treatment; type: cell-based; conditions: result in words
# Water solubility = type: physicochemical; conditions: result in words; method not given
SMILES,cytotoxicity (in words) (MCF-7 cells),water solubility (Water solubility)
N=C(N)NCCC[C@H](NC(=O)[C@H](CCCNC(=N)N)NC(=O)[C@H](CCCNC(=N)N)NC(=O)[C@H](CCCNC(=N)N)NC(=O)[C@H](CCCNC(=N)N)NC(=O)[C@H](CCCNC(=N)N)NC(=O)[C@H](CCCNC(=N)N)NC(=O)[C@H](CCCNC(=N)N)NC(=O)c1ccc2c(c1)C(=O)OC21c2ccc(O)cc2Oc2cc(O)ccc21)C(N)=O [Construct 1],minor cytotoxicity,
C[C@@H](c1ccccc1)N(CC(N)=O)C(=O)CN(C(=O)CN(CCCCN)C(=O)CN(C(=O)CN(C(=O)CN(CCCCN)C(=O)CN(C(=O)CN(C(=O)CN(CCCCN)C(=O)CN(C(=O)CN(C(=O)CN(CCCCN)C(=O)c1ccc2c(c1)C(=O)OC21c2ccc(O)cc2Oc2cc(O)ccc21)[C@@H](C)c1ccccc1)[C@@H](C)c1ccccc1)[C@@H](C)c1ccccc1)[C@@H](C)c1ccccc1)[C@@H](C)c1ccccc1)[C@@H](C)c1ccccc1)[C@@H](C)c1ccccc1 [Construct 4],,good water solubility
